Measured values taken from US8329454B2, “Device for detecting a cholinesterase-inhibiting substance comprising a hydrophilic photo-crosslinkable resin” (priority 2008, dated 2012).

What was measured:
[1] = tested on: cholinesterase; assay: Visual detection with the cholinesterase detection device after on-column NBS oxidation (Example 1); details: for Detection Level (ppb): Table 1, tested in the same manner as Example 1 (NBS oxidation)
[2] = tested on: cholinesterase; assay: Visual detection with the cholinesterase detection device without oxidation treatment (Comparative Example 1, Example 2); assay type: biochemical; details: for Detection Level (ppb): Table 1, agrichemicals marked *, taken as tested in the same manner as Example 2 (no NBS oxidation)
Protocol: This is a comparative experiment for confirming the effect of oxidation treatment (NBS solution suction treatment) in Example 1. In the same manner as in Example 1, the column was made to adsorb diazinone in the sample, and then not processed for oxidation treatment (NBS solution suction treatment), diazinone was eluted from the column. The eluate was added to the detection device, and an indoxyl acetate solution was added to the device.
The detection method was to follow the process shown in FIG. 3; however, since a carbamate agrichemical was the object to be detected, the NBS solution suction and discharge operation attained in Example 1 was omitted here.
As a sample, prepared was 10 mL of an aqueous solution of a carbaryl (NAC) standard liquid of a carbamate agrichemical having a diluted concentration of 10 ppb; and this was sucked in the syringe with a column chip connected to the tip thereof, as shown in FIG. 2.
The sucked solution was discharged in a beaker and again sucked, and this cycle was repeated three times whereby the sample NAC was adsorbed by the column. Subsequently, NAC was eluted from the column, and put into the device to undergo an enzyme inhibitory reaction for 5 minutes therein.
After 5 minutes, a coloring substrate of an indoxyl acetate solution was added to the device, and underwent coloration reaction for 5 minutes.
Other agrichemical substances were tested in the same manner as in Example 1 and Example 2, and the following results were obtained.

[3] = tested on: cholinesterase; details: prior-art kit AT-10/AT-25 (Agriscreen Ticket 10/25) by NEOGEN; cited from earlier work

Row | Compound | Detection Level (ppb) [1] [ppb] | other results
1 | etorifos | 10 | 
2 | CCOP(=S)(OCC)Oc1ccc([S+](C)[O-])cc1 (centres unmarked) [fensulfothion] | 100 | 
3 | CCOP(=S)(OCC)Oc1cnc2ccccc2n1 [quinalphos] | 0.1 | 
4 | COP(=O)(OC)O/C(=C/Cl)c1ccc(Cl)cc1Cl [dimethylvinphos(E)] | 100 | 
5 | CCOP(=S)(OCC)Oc1cc(C)nc(C(C)C)n1 [diazinone] |  | detection level ([2]; Comparative Example 1: as Example 1 but no oxidation treatment (no NBS)): 5 ppm; detection limit [3]: ~2.0 ppm; detected at a concentration level ([1]; Example 1: 10 mL aqueous sample, adsorbed on column, 1% NBS oxidation to oxon form, 5 min inhibition, indoxyl acetate 5 min, no coloration): 0.1 ppb
6 | CCOP(=S)(OCC)Oc1cc(Cl)c(Br)cc1Cl [bromofos-ethyl] | 10 | 
7 | CCN(CC)c1nc(C)cc(OP(=S)(OC)OC)n1 [pyrimiphos-methyl] | 20 | 
8 | CNC(=O)Oc1cccc2ccccc12 [carbaryl] |  | detected at a concentration level ([2]; Example 2: 10 mL aqueous sample, adsorbed on column, no NBS step, 5 min inhibition, indoxyl acetate 5 min, no coloration): 10 ppb; detection limit [3]: around 7.0 ppm
9 | CCOP(=O)(OCC)O/C(=C\Cl)c1ccc(Cl)cc1Cl [chlorfenvinphos] | 40 | 
10 | CCCOP(=O)(OCCC)Oc1ccc(SC)cc1 [propafos] | 1 | 
11 | CCOP(=S)(OCC)SCn1nnc2ccccc2c1=O [azinphos-ethyl] | 1 | 
12 | CCOP(=S)(OCC)SCSCC [phorate] | 80 | 
13 | CCOP(=S)(OCC)Oc1ccc([N+](=O)[O-])cc1 [parathion] | 0.8 | 
14 | CCOP(=S)(NC(C)CC)Oc1cc(C)ccc1[N+](=O)[O-] (centres unmarked) [butamifos] | 100 | 
15 | CCOP(=S)(OCC)Oc1nc(Cl)c(Cl)cc1Cl [chlorpyrifos] | 0.2 | detection limit [3]: ~0.7 ppm
16 | CCOP(=S)(Oc1ccc([N+](=O)[O-])cc1)c1ccccc1 (centres unmarked) [EPN] | 40 | 
17 | COP(=S)(OC)Oc1ccc([N+](=O)[O-])c(C)c1 [fenitrothion] | 40 | 

Row | Compound | Detection Level (ppb) [1] [ppb] | other results
18 | CCOP(=S)(OCC)SCSP(=S)(OCC)OCC [ethion] | 10 | 
19 | CCCSP(=S)(OCC)Oc1ccc(SC)cc1 (centres unmarked) [sulprofos] | 20 | 
20 | Cc1nc(N(C)C)nc(OC(=O)N(C)C)c1C [pirimicarb] |  | Detection Level (ppb) [2]: 8 ppb
21 | CCOP(=S)(OCC)SCn1c(=O)oc2cc(Cl)ccc21 [phosalone] | 6 | 
22 | CCOP(=S)(OCC)Oc1ccc(Cl)cc1Cl [dichlofenthion] | 100 | 
23 | CCOP(=S)(OCC)Oc1ccc(=O)n(-c2ccccc2)n1 [pyridaphenthion] | 1 | 
24 | CCOP(=S)(OCC)SCSC(C)(C)C [terbufos] | 10 | 
25 | CS/C(C)=N\OC(=O)N(C)SN(C)C(=O)O/N=C(\C)SC [thiodicarb] |  | Detection Level (ppb) [2]: 20 ppb
26 | CNC(=O)/C=C(\C)OP(=O)(OC)OC [monocrotophos] | 100 | 
27 | COP(=O)(OC)O/C(=C\Cl)c1ccc(Cl)cc1Cl [dimethylvinphos(Z)] | 100 | 
28 | CCCSP(=O)(OCC)SCCC [etoprophos] | 100 | 
29 | CCOP(=S)(OCC)Oc1ccc2c(C)c(Cl)c(=O)oc2c1 [coumafos] | 2 | 
30 | COP(=S)(OC)SCn1nnc2ccccc2c1=O [azinphos-methyl] | 8 | 
31 | COP(=S)(OC)Oc1nc(Cl)c(Cl)cc1Cl [chlorpyrifos-methyl] | 1 | detection limit [3]: ~1.0 ppm
32 | COP1(=S)OCc2ccccc2O1 (centres unmarked) [salithion] | 100 | 
33 | CCOP(=S)(OCC)Oc1cc(-c2ccccc2)on1 [isoxathion] | 0.2 | 
